Experimental data from US20050239656A1, “Pyridine compounds or salts thereof and herbicides containing the same” (priority 2002, published 2005).

Assays:
barnyardgrass [1] = test: Test Example 1: foliage treatment, upland pot test; assay type: in vivo, Echinochloa crus-galli L.; conditions: active ingredient 500 g/ha, observed 18th to 23rd day, 0 = non-treated, 100 = complete kill
Method in brief: (§1)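 Pots of upland field soil were sown and sprayed post-emergence at soybean 0.1–0.4, wheat 1.3–2.4, rice 1.2–2.6 and barnyardgrass 1.3–2.8 leaf stages. Formulations were diluted in water at 500 L/ha with 0.1% (v/v) spreader. Growth control (0 = untreated, 100 = complete kill) was judged by eye 18–23 days later.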

crabgrass [2] = test: Test Example 1: foliage treatment, upland pot test; assay type: in vivo, Digitaria sanguinalis L.; conditions: active ingredient 500 g/ha, observed 18th to 23rd day, 0 = non-treated, 100 = complete kill
green foxtail [3] = test: Test Example 1: foliage treatment, upland pot test; assay type: in vivo, Setaria viridis L.; conditions: active ingredient 500 g/ha, observed 18th to 23rd day, 0 = non-treated, 100 = complete kill
redroot pigweed [4] = test: Test Example 1: foliage treatment, upland pot test; assay type: in vivo, Amaranthus retroflexus L.; conditions: active ingredient 500 g/ha, observed 18th to 23rd day, 0 = non-treated, 100 = complete kill
prickly sida [5] = test: Test Example 1: foliage treatment, upland pot test; assay type: in vivo, Sida spinosa L.; conditions: active ingredient 500 g/ha, observed 18th to 23rd day, 0 = non-treated, 100 = complete kill
velvetleaf [6] = test: Test Example 1: foliage treatment, upland pot test; assay type: in vivo, Abutilon theophrasti MEDIC.; conditions: active ingredient 500 g/ha, observed 18th to 23rd day, 0 = non-treated, 100 = complete kill
rice [7] = test: Test Example 1: foliage treatment, upland pot test; assay type: in vivo, Oryza sativa L.; conditions: crop, active ingredient 500 g/ha, observed 18th to 23rd day, 0 = non-treated, 100 = complete kill
Method in brief: as §1

corn [8] = test: Test Example 1: foliage treatment, upland pot test; assay type: in vivo, Zea mays L.; conditions: crop, active ingredient 500 g/ha, observed 18th to 23rd day, 0 = non-treated, 100 = complete kill
Method in brief: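 Corn seeds were sown in upland field soil held in a 1/170,000 ha pot and grown to the 2.1 to 3.2 leaf stage. A wettable powder or emulsifiable concentrate of the test compound was diluted with water at 500 L/ha, given 0.1% (v/v) agricultural spreader, and sprayed onto the foliage with a small sprayer. Growth controlling degree (%) was scored visually 18th to 23rd days later, from 0 (non-treated) to 100 (complete kill).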

soybean [9] = test: Test Example 1: foliage treatment, upland pot test; assay type: in vivo, Glycine max Merr.; conditions: crop, active ingredient 500 g/ha, observed 18th to 23rd day, 0 = non-treated, 100 = complete kill
Method in brief: as §1

barnyardgrass [10] = test: Test Example 2: soil surface treatment, upland pot test; assay type: in vivo, Echinochloa crus-galli L.; conditions: active ingredient 500 g/ha
Method in brief: (§2)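 Visual growth-control ratings, from 0 (like the non-treated plot) to 100 (total kill), were made between days 20 and 28 after a soil-surface spray. The compound, formulated as wettable powder or emulsifiable concentrate and diluted at 1,500 L/ha, went on one day post-sowing in upland-soil pots of 1/170,000 ha.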

crabgrass [11] = test: as above; assay type: in vivo, Digitaria sanguinalis L.; conditions: active ingredient 500 g/ha
Method in brief: as §2

green foxtail [12] = test: as above; assay type: in vivo, Setaria viridis L.; conditions: active ingredient 500 g/ha
Method in brief: as §2

redroot pigweed [13] = test: as above; assay type: in vivo, Amaranthus retroflexus L.; conditions: active ingredient 500 g/ha
Method in brief: as §2

prickly sida [14] = test: as above; assay type: in vivo, Sida spinosa L.; conditions: active ingredient 500 g/ha
Method in brief: as §2

velvetleaf [15] = test: as above; assay type: in vivo, Abutilon theophrasti MEDIC.; conditions: active ingredient 500 g/ha
Method in brief: as §2

rice [16] = test: as above; assay type: in vivo, Oryza sativa L.; conditions: active ingredient 500 g/ha
Method in brief: as §2

corn [17] = test: as above; assay type: in vivo, Zea mays L.; conditions: active ingredient 500 g/ha
Method in brief: as §2

soybean [18] = test: as above; assay type: in vivo, Glycine max Merr.; conditions: active ingredient 500 g/ha
Method in brief: as §2

barnyardgrass [19] = test: Test Example 3: paddy pot test, application under submerged conditions; assay type: in vivo, Echinochloa crus-galli L.; conditions: submerged application at 0.5 leaf stage, visually observed 14 days after application, 0 = non-treated, 100 = complete kill
Method in brief: (§3)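 Seeds were sown in flooded paddy soil (0.5–1 cm water), wapato tubers were planted 1–2 days later, and water was then held at 3–4 cm. Diluted wettable powder or emulsifiable concentrate was pipetted into the water at the 0.5 leaf or primary leaf stage. Growth control was visually scored at 14 days (0–100%).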

japanese bulrush = test: as above; assay type: in vivo, Scirpus juncoides; conditions: submerged application at 0.5 leaf stage, visually observed 14 days after application, 0 = non-treated, 100 = complete kill
Method in brief: as §3

japanese ribbon wapato = test: as above; assay type: in vivo, Sagittaria pygniaea; conditions: submerged application at primary leaf stage, visually observed 14 days after application, 0 = non-treated, 100 = complete kill
Method in brief: as §3

rice (var. Nihonbare) = test: Test Example 3: paddy pot test, transplanted rice; assay type: in vivo, Oryza sativa L.; conditions: applied 4th day after transplantation, visually observed 21st day after application, 0 = non-treated, 100 = complete kill
Method in brief: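 Rice (2-leaf stage) was transplanted 3 cm deep into puddled, leveled paddy soil under 3–4 cm flooding. On day 4 after transplanting, diluted wettable powder or emulsifiable concentrate was pipetted onto the water at a predetermined active-ingredient dose. Growth control (0 = untreated, 100 = complete kill) was scored visually 21 days later.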

[20] = observed day 21, 0 = non-treated, 100 = complete kill

SMILES | Growth controlling degree (%) Barnyardgrass (barnyardgrass [1]) | Growth controlling degree (%) Crabgrass (crabgrass [2]) | Growth controlling degree (%) Green foxtail (green foxtail [3]) | Growth controlling degree (%) Redroot pigweed (redroot pigweed [4]) | Growth controlling degree (%) Prickly sida (prickly sida [5]) | Growth controlling degree (%) Velvetleaf (velvetleaf [6]) | Growth controlling degree (%) Rice (rice [7]) | Growth controlling degree (%) Corn (corn [8]) | Growth controlling degree (%) Soybean (soybean [9]) | Growth controlling degree (%) Barnyardgrass (barnyardgrass [10]; observed 20th to 28th day) | Growth controlling degree (%) Crabgrass (crabgrass [11]; observed 20th to 28th day) | Growth controlling degree (%) Green foxtail (green foxtail [12]; observed 20th to 28th day) | Growth controlling degree (%) Redroot pigweed (redroot pigweed [13]; observed 20th to 28th day) | Growth controlling degree (%) Prickly sida (prickly sida [14]; observed 20th to 28th day) | Growth controlling degree (%) Velvetleaf (velvetleaf [15]; observed 20th to 28th day) | Growth controlling degree (%) Rice (rice [16]; observed 20th to 28th day) | Growth controlling degree (%) Barnyardgrass (barnyardgrass [19]; active ingredient 250 g/ha) | Growth controlling degree (%) Japanese bulrush (japanese bulrush; active ingredient 250 g/ha) | Growth controlling degree (%) Japanese ribbon wapato (japanese ribbon wapato; active ingredient 250 g/ha) | Growth controlling degree (%) Rice (rice (var. Nihonbare); active ingredient 250 g/ha) | also measured
CC(C)C(c1cnccc1C(F)(F)F)N(C)C(=O)CC1CCCC1 (stereo not drawn) [I-165] | 80% | 95% | 70% | 70% | 80% | 80% | 10% | 40% | 80% | 100% | 100% | 100% | 80% | 70% | 50% | 10% | 98% | 98% | 60% | 10% | Growth controlling degree (%) Corn (corn [17]; observed 20th to 28th day): 20%; Growth controlling degree (%) Soyabean (soybean [18]; observed 20th to 28th day): 20%
CCC(CC)C(c1cnccc1C(F)(F)F)N(C)C(=O)COc1ccccc1 (stereo not drawn) [I-263] | 80% | 80% | 70% | 70% | 90% | 95% | 60% | 40% | 80% | – | – | – | – | – | – | – | 5% | 90% | 20% | 0% | Growth controlling degree (%) Barnyardgrass (barnyardgrass [10]; [20]): 10%; Growth controlling degree (%) Crabgrass (crabgrass [11]; [20]): 95%; Growth controlling degree (%) Green foxtail (green foxtail [12]; [20]): 60%; Growth controlling degree (%) Redroot pigweed (redroot pigweed [13]; [20]): 70%; Growth controlling degree (%) Prickly sida (prickly sida [14]; [20]): 70%; Growth controlling degree (%) Velvetleaf (velvetleaf [15]; [20]): 40%; Growth controlling degree (%) Rice (rice [16]; [20]): 40%; Growth controlling degree (%) Corn (corn [17]; [20]): 20%; Growth controlling degree (%) Soyabean (soybean [18]; [20]): 10%
CC(C)C(c1cnccc1C(F)(F)F)N(C)C(=O)C=Cc1ccc(Br)cc1 (stereo not drawn) [I-178] | 50% | 60% | 60% | 70% | 95% | 95% | 40% | 10% | 60% | 90% | 98% | 100% | 40% | 30% | 40% | 40% | – | – | – | – | Growth controlling degree (%) Corn (corn [17]; observed 20th to 28th day): 10%; Growth controlling degree (%) Soyabean (soybean [18]; observed 20th to 28th day): 0%; Growth controlling degree (%) Barnyardgrass (barnyardgrass [19]; active ingredient 500 g/ha): 98%; Growth controlling degree (%) Japanese bulrush (japanese bulrush; active ingredient 500 g/ha): 95%; Growth controlling degree (%) Japanese ribbon wapato (japanese ribbon wapato; active ingredient 500 g/ha): 40%; Growth controlling degree (%) Rice (rice (var. Nihonbare); active ingredient 500 g/ha): 0%
CC(C)C(c1cnccc1C(F)(F)F)N(C)C(=O)Cc1c(F)cccc1Cl (stereo not drawn) [I-33] | 20% | 80% | 70% | 60% | 70% | 80% | 30% | 0% | 40% | 100% | 100% | 90% | 80% | 80% | 90% | 10% | 100% | 85% | 90% | 10% | Growth controlling degree (%) Corn (corn [17]; observed 20th to 28th day): 30%; Growth controlling degree (%) Soyabean (soybean [18]; observed 20th to 28th day): 0%
CCC(C)C(c1cnccc1C(F)(F)F)N(C)C(=O)COc1ccccc1 (stereo not drawn) [I-261] | 70% | 60% | 60% | 50% | 60% | 50% | 20% | 10% | 80% | – | – | – | – | – | – | – | 100% | 95% | 70% | 20% | Growth controlling degree (%) Barnyardgrass (barnyardgrass [10]; [20]): 90%; Growth controlling degree (%) Crabgrass (crabgrass [11]; [20]): 100%; Growth controlling degree (%) Green foxtail (green foxtail [12]; [20]): 100%; Growth controlling degree (%) Redroot pigweed (redroot pigweed [13]; [20]): 70%; Growth controlling degree (%) Prickly sida (prickly sida [14]; [20]): 98%; Growth controlling degree (%) Velvetleaf (velvetleaf [15]; [20]): 50%; Growth controlling degree (%) Rice (rice [16]; [20]): 20%; Growth controlling degree (%) Corn (corn [17]; [20]): 20%; Growth controlling degree (%) Soyabean (soybean [18]; [20]): 20%
Cc1ccccc1CC(=O)N(C)C(c1cnccc1C(F)(F)F)C(C)C (stereo not drawn) [I-36] | 95% | 98% | 70% | 80% | 90% | 70% | 10% | 35% | 70% | 100% | 98% | 98% | 80% | 100% | 50% | 30% | 100% | 95% | 90% | 10% | Growth controlling degree (%) Corn (corn [17]; observed 20th to 28th day): 20%; Growth controlling degree (%) Soyabean (soybean [18]; observed 20th to 28th day): 10%
